Results reported in patent publication US5206029A, “Medicament and its production and use in the treatment of pain, inflammation and fever in man and animals” (PAZ Arzneimittel-Entwicklungsgesellschaft mbH, priority 1990, dated 1993).

How the values were obtained:
[1] = system: macrophages (peritoneum of the mouse); assay: inhibition of prostaglandin liberation on macrophages (peritoneum of the mouse); format: cell-based
Procedure: Furthermore, contrary to the published state of knowledge (v. supra), S(+)-flurbiprofen in the case of administration after episiotomy is preferably effective antiphlogistically and not preferably analgesically. This further surprising test result was tested on two inflammation models selected independently of one another.

[2] = design: species or system mouse and rat; details: in vivo
Excerpt: (§1) This unexpected result was verified by investigations in two animal models (mouse and rat).

[3] = system: post-episiotomy pain; details: half dosage; A. Sunshine et al., Clin. Pharmacol Ther. 1987; cited from earlier work
[4] = system: carrageenin-induced paw oedema; assay: carrageenin-induced paw oedema of the rat; format: in vivo, rat (male Sprague-Dawley); details: for oedema inhibition: 0.3 mg./kg. per os, paw volume after 3 hours p.a., FIG. 4
Procedure: To male Sprague-Dawley rats, each with a body weight of 120 to 150 g., were administered per os with a stomach probe the test substances (0.3 mg./kg. body weight). Immediately thereafter, into the left rear paw was injected subplantary 0.1 ml. of a.1% carrageenin solution in order to induce oedema. After 3 hours p.a., the paw volumes were determined by means of a plethysmometer (modified method according to Hofrichter).

[5] = system: gastro-intestinal mucosa; assay: gastrointestinal toxicity in the rat (gastric ulcer index, intestinal ulcer); format: in vivo
Procedure: Each of the test groups were sacrificed after 24 hours, the stomach and intestines were removed and the stomach opened and cleaned with salt solution. The number of ulcerations multiplied with the diameter thereof in mm. is given as the "gastric ulcer index". The unopened small intestine was investigated for white and brown color changes. The corresponding sections were cut out and the weight thereof in comparison with the total weight plotted in % as "intestinal ulcer". The results are significant in the t-test in comparison with the control.

[6] = system: cramp pain; assay: cramp pain test in mice; format: in vivo, mouse; details: FIG. 1
Excerpt: as §1
(§2) FIGS. 1-4 are graphs of tests in rats for cramp pain, interleukin-1-inducedpain, prostaglandin production and carrageenin-induced paw oedema for the R(-) and S(+) enantiomers of flurbiprofen, […]

[7] = system: interleukin 1-induced pain; assay: interleukin 1-induced pain test in rats; format: in vivo, rat; details: FIG. 2
Excerpt: as §1, §2

Row | SMILES | inhibition of the liberation of prostaglandin, compared with the R(-)-form [1] | inversion after administration [2] | analgesic effectiveness compared with the racemate [3] | oedema inhibition [4] | inflammation-inhibiting action in carrageenin paw oedema, compared with the R(-)-form ([4]; rat, FIGS. 3 and 4) | damage of the gastro-intestinal mucosa ([5]; rat, in vivo) | analgesic effectiveness in the cramp pain test, R- versus S-enantiomer [6] | analgesic effectiveness in the interleukin 1-induced pain test, R- versus S-enantiomer [7] | toxicity on the gastrointestinal tract, compared with the racemate or the S(+)-enantiomer ([5]; summary statement)
1 | C[C@H](C(=O)O)c1ccc(-c2ccccc2)c(F)c1 [S(+)-flurbiprofen] | inhibits the liberation of prostaglandin more markedly than the R(-)-form | no or only a very small inversion | already more effective at half dosage | 64% | superior in its inflammation-inhibiting action to the R(-)-form | only S(+)-flurbiprofen caused damage | – | – | –
2 | C[C@@H](C(=O)O)c1ccc(-c2ccccc2)c(F)c1 [R(-)-flurbiprofen] | – | no or only a very small inversion | – | 18% | – | – | equal or even more effective by about one third to a half | equal or even more effective by about one third to a half | lower grade toxicity on the gastrointestinal tract than the racemate or the S(+)-enantiomer
